Source: ChEMBL document CHEMBL5537196, “Discovery of KIN-3248, An Irreversible, Next Generation FGFR Inhibitor for the Treatment of Advanced Tumors Harboring FGFR2 and/or FGFR3 Gene Alterations” (J Med Chem, 2024)
pIC50: −log10 of the molar value.

What was measured:
[1] = Antiproliferative activity against human ICC13-7 cells assessed as inhibition of cell growth incubated for 3 days by Cell-titer glo assay; details: ICC13-7, 72 h
CC-LP-1 [2] = assay: Antiproliferative activity against human CC-LP-1 cells expressing FGFR2 V565F mutant assessed as inhibition of cell growth incubated for 3 days by Cell-titer glo assay; details: CC-LP-1, 72 h
SNU-16 = assay: Antiproliferative activity against human SNU-16 cells assessed as inhibition of cell growth incubated for 5 days by Cell-titer glo assay; details: SNU-16, 120 h
CC-LP-1 [3] = assay: Antiproliferative activity against human CC-LP-1 cells expressing FGFR2 N550K mutant assessed as inhibition of cell growth incubated for 3 days by Cell-titer glo assay; details: CC-LP-1, 72 h
RT-112 [4] = assay: Antiproliferative activity against human RT-112 cells expressing FGFR3 V555M mutant assessed as inhibition of cell growth incubated for 5 days by Cell-titer glo assay; details: RT-112, 120 h
RT-112 [5] = assay: Antiproliferative activity against human RT-112 cells assessed as inhibition of cell growth incubated for 5 days by Cell-titer glo assay; details: RT-112, 120 h
RT-112 [6] = assay: Antiproliferative activity against human RT-112 cells expressing FGFR3 K650M mutant assessed as inhibition of cell growth incubated for 5 days by Cell-titer glo assay; details: RT-112, 120 h
[7] = Antitumor activity against patient derived STO357 PDX cells xenografted in mouse assessed as tumor growth inhibition at 1 mg/kg,po administrated once daily for 3 weeks relative to control; format: functional; details: Homo sapiens, 504 h, read-out: TGI
CC-LP-1 [8] = assay: Antiproliferative activity against human CC-LP-1 cells assessed as inhibition of cell growth incubated for 3 days by Cell-titer glo assay; details: CC-LP-1, 72 h
CC-LP-1 [9] = assay: Antiproliferative activity against human CC-LP-1 cells expressing FGFR2 N550H mutant assessed as inhibition of cell growth incubated for 3 days by Cell-titer glo assay; format: functional, cell-based; details: CC-LP-1, 72 h
RT-112 [10] = assay: Antiproliferative activity against human RT-112 cells expressing FGFR3 N540K mutant assessed as inhibition of cell growth incubated for 5 days by Cell-titer glo assay; details: RT-112, 120 h
RT-112 [11] = assay: Antiproliferative activity against human RT-112 cells expressing FGFR3 assessed as inhibition of cell growth incubated for 5 days by Cell-titer glo assay; details: RT-112, 120 h
[12] = Antiproliferative activity against human ICC13-7 cells expressing FGFR2 V565F mutant assessed as inhibition of cell growth incubated for 10 days by Cell-titer glo assay; details: ICC13-7, 240 h
[13] = Antiproliferative activity against human ICC13-7 cells expressing FGFR2 N550K mutant assessed as inhibition of cell growth incubated for 10 days by Cell-titer glo assay; details: ICC13-7, 240 h
[14] = Cmax in Beagle dog at 15 mg/kg,po administrated at 0.25 to 24 hrs by LC-MS/MS analysis; format: ADME, organism-based, Canis lupus familiaris; details: in vivo, time 0.25-24 hrs
[15] = Total clearance in Sprague-Dawley rat at 5 mg/kg,iv administrated at 0.25 to 24 hrs by LC-MS/MS analysis; format: ADME, organism-based; details: in vivo, time 0.25-24 hrs
[16] = Oral bioavailability in Beagle dog at 15 mg/kg administrated at 0.25 to 24 hrs by LC-MS/MS analysis; format: ADME, organism-based, Canis lupus familiaris; details: in vivo, time 0.25-24 hrs
[17] = AUC (0 to 24 hrs) in Sprague-Dawley rat at 15 mg/kg,po administrated at 0.25 to 24 hrs by LC-MS/MS analysis; format: ADME, organism-based; details: in vivo, time 0.25-24 hrs
[18] = Cmax in Sprague-Dawley rat at 15 mg/kg,po administrated at 0.25 to 24 hrs by LC-MS/MS analysis; format: ADME, organism-based; details: in vivo, time 0.25-24 hrs
[19] = Half life in Beagle dog at 5 mg/kg,iv administrated at 0.25 to 24 hrs by LC-MS/MS analysis; format: ADME, organism-based, Canis lupus familiaris; details: in vivo, time 0.25-24 hrs
[20] = AUC (0 to 24 hrs) in Beagle dog at 15 mg/kg,po administrated at 0.25 to 24 hrs by LC-MS/MS analysis; format: ADME, organism-based, Canis lupus familiaris; details: in vivo, time 0.25-24 hrs
[21] = Total clearance in Beagle dog at 5 mg/kg,iv administrated at 0.25 to 24 hrs by LC-MS/MS analysis; format: ADME, organism-based, Canis lupus familiaris; details: in vivo, time 0.25-24 hrs
[22] = Oral bioavailability in Sprague-Dawley rat at 15 mg/kg administrated at 0.25 to 24 hrs by LC-MS/MS analysis; format: ADME, organism-based; details: in vivo, time 0.25-24 hrs
[23] = Half life in Sprague-Dawley rat at 5 mg/kg,iv administrated at 0.25 to 24 hrs by LC-MS/MS analysis; format: ADME, organism-based; details: in vivo, time 0.25-24 hrs
[24] = Intrinsic clearance in human liver microsomes; format: ADME, Microsome; details: read-out: CLH
[25] = Intrinsic clearance in human hepatocyte measured per 10^6 cells; format: ADME, cell-based; details: hepatocytes, read-out: CLH

CCN1C(=O)N(c2c(F)c(OC)cc(OC)c2F)Cc2cnc3[nH]c(CN4CCOCC4)cc3c21 [PEMIGATINIB]
pIC50 [1]: 8.59 | pIC50 (CC-LP-1 [2]): 5.79 | pIC50 (SNU-16): 8.41 | pIC50 (CC-LP-1 [3]): 6.31 | pIC50 (RT-112 [4]): < 5.94 | pIC50 (RT-112 [5]): 8.48 | pIC50 (RT-112 [6]): 6.76 | inhibition in vivo at 1 mg/kg [7]: 57% | pIC50 (CC-LP-1 [8]): 8.44 | pIC50 (CC-LP-1 [9]): 7.31 | pIC50 (RT-112 [10]): 5.73 | pIC50 (RT-112 [11]): 8.22 | pIC50 [12]: < 5.63 | pIC50 [13]: 6.38

C=CC(=O)N1C[C@@H](n2nc(C#Cc3cc4ncn(C5CC5)c4cc3F)c(C(N)=O)c2NC)C[C@@H]1COC
pIC50 [1]: 8.85 | Cmax [14]: 770 ng/mL | pIC50 (CC-LP-1 [2]): 8.82 | pIC50 (SNU-16): 8.40 | pIC50 (CC-LP-1 [3]): 8.44 | clearance [15]: 25 mL/min/kg | bioavailability [16]: 23.5% | AUC(0-t) [17]: 2620 ng·h/mL | pIC50 (CC-LP-1 [8]): 8.64 | Cmax [18]: 760 ng/mL | half-life [19]: 11.4 h | AUC(0-t) [20]: 1700 ng·h/mL | clearance [21]: 31.8 mL/min/kg | bioavailability [22]: 27% | half-life [23]: 8.85 h | microsomal CLint [24]: 97.1 µL/min/mg | pIC50 [12]: 8.85 | hepatocyte CLint [25]: 12 µL/min/1e6 cells | pIC50 [13]: 8.46
